How the values were obtained:
Format in all cases: in vivo
Echinocloa crus-galli [1] = assay: Herbicidal post-emergence action; details: post-emergence method, 80 g/ha
Outline: (§1)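 Percent herbicidal effect (0% like control, 100% plants dead) was rated by eye roughly three weeks post-treatment. Treatment was a post-emergence spray of wettable-powder formulations at different doses, 600 l/ha water with 0.2% wetter, onto one-leaf-stage weeds and crops grown in greenhouse pots.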

Alopecurus myosuroides [2] = assay: Herbicidal post-emergence action; details: post-emergence method, 80 g/ha
Outline: as §1

Setaria viridis [3] = assay: Herbicidal post-emergence action; details: post-emergence method, 80 g/ha
Outline: as §1

Lolium multiflorum [4] = assay: Herbicidal post-emergence action; details: post-emergence method, 80 g/ha
Outline: as §1

[5] = system: monocotylidonous and dicotylidonous weed and crop plants; assay: Herbicidal pre-emergence action (other test plants); details: pre-emergence method, 80 g/ha, greenhouse, visual assessment vs untreated controls
Outline: (§2)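 Test compounds, as wettable powder suspensions with 0.2% wetting agent at a water rate of 600 l/ha, were applied in different amounts to the covering soil over freshly sown seeds in sandy loam. Emergence damage was rated visually in percent against untreated plants after three weeks under greenhouse conditions.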

[6] = system: monocotylidonous and dicotylidonous weed and crop plants; assay: Herbicidal post-emergence action (other test plants); details: post-emergence method, 80 g/ha
Outline: as §1

Echinocloa crus-galli [7] = assay: Herbicidal pre-emergence action; details: pre-emergence method, 80 g/ha, greenhouse, visual assessment vs untreated controls
Outline: as §2

Alopecurus myosuroides [8] = assay: Herbicidal pre-emergence action; details: pre-emergence method, 80 g/ha, greenhouse, visual assessment vs untreated controls
Outline: as §2

Setaria viridis [9] = assay: Herbicidal pre-emergence action; details: pre-emergence method, 80 g/ha, greenhouse, visual assessment vs untreated controls
Outline: as §2

Lolium multiflorum [10] = assay: Herbicidal pre-emergence action; details: pre-emergence method, 80 g/ha, greenhouse, visual assessment vs untreated controls
Outline: as §2

SMILES: CCOC(=O)OC1=C(c2c(C)cc(C)cc2CC)C(=O)C2CC3(CC12)OCCCCO3 (racemic) [I-c-75]
- herbicidal effect against ECHCG (Echinochloa crus-galli) (Echinocloa crus-galli [1]): 100%
- herbicidal effect against ALOMY (Alopecurus myosuroides) (Alopecurus myosuroides [2]): 60%
- herbicidal effect against SETVI (Setaria viridis) (Setaria viridis [3]): 100%
- herbicidal effect against LOLMU (Lolium multiflorum) (Lolium multiflorum [4]): 100%
- herbicidal effect AVEFA [5]: 60%
- herbicidal effect against AVEFA (Avena fatua) [6]: 50%
- herbicidal effect ECHCG (Echinocloa crus-galli [7]): 100%
- herbicidal effect ALOMY (Alopecurus myosuroides [8]): 70%
- herbicidal effect SETVI (Setaria viridis [9]): 60%
- herbicidal effect LOLMU (Lolium multiflorum [10]): 100%

SMILES: CCOC(=O)OC1=C(c2c(C)cc(C)cc2C)C(=O)C2CC3(CC12)OCC=CCO3 (racemic) [I-c-51]
- herbicidal effect against ECHCG (Echinochloa crus-galli) (Echinocloa crus-galli [1]): 100%
- herbicidal effect against ALOMY (Alopecurus myosuroides) (Alopecurus myosuroides [2]): 100%
- herbicidal effect against SETVI (Setaria viridis) (Setaria viridis [3]): 100%
- herbicidal effect against LOLMU (Lolium multiflorum) (Lolium multiflorum [4]): 100%
- herbicidal effect AVEFA [5]: 60%
- herbicidal effect against AVEFA (Avena fatua) [6]: 40%
- herbicidal effect ECHCG (Echinocloa crus-galli [7]): 30%
- herbicidal effect ALOMY (Alopecurus myosuroides [8]): 100%
- herbicidal effect SETVI (Setaria viridis [9]): 90%
- herbicidal effect LOLMU (Lolium multiflorum [10]): 90%

SMILES: CCc1cc(C)cc(CC)c1C1=C(O)C2CC3(COC(CC)O3)CC2C1=O (centres unmarked) [I-a-6]
- herbicidal effect against ECHCG (Echinochloa crus-galli) (Echinocloa crus-galli [1]): 100%
- herbicidal effect against ALOMY (Alopecurus myosuroides) (Alopecurus myosuroides [2]): 90%
- herbicidal effect against SETVI (Setaria viridis) (Setaria viridis [3]): 90%
- herbicidal effect against LOLMU (Lolium multiflorum) (Lolium multiflorum [4]): 100%
- herbicidal effect AVEFA [5]: 60%
- herbicidal effect against AVEFA (Avena fatua) [6]: 70%
- herbicidal effect ECHCG (Echinocloa crus-galli [7]): 60%
- herbicidal effect ALOMY (Alopecurus myosuroides [8]): 100%
- herbicidal effect SETVI (Setaria viridis [9]): 60%
- herbicidal effect LOLMU (Lolium multiflorum [10]): 100%

SMILES: CCOC(=O)OC1=C(c2c(C)cc(C)cc2OC)C(=O)C2CC3(CC12)OCCCCO3 (racemic) [I-c-66]
- herbicidal effect against ECHCG (Echinochloa crus-galli) (Echinocloa crus-galli [1]): 100%
- herbicidal effect against ALOMY (Alopecurus myosuroides) (Alopecurus myosuroides [2]): 100%
- herbicidal effect against SETVI (Setaria viridis) (Setaria viridis [3]): 100%
- herbicidal effect against LOLMU (Lolium multiflorum) (Lolium multiflorum [4]): 100%
- herbicidal effect AVEFA [5]: 70%
- herbicidal effect against AVEFA (Avena fatua) [6]: 100%
- herbicidal effect ECHCG (Echinocloa crus-galli [7]): 100%
- herbicidal effect ALOMY (Alopecurus myosuroides [8]): 100%
- herbicidal effect SETVI (Setaria viridis [9]): 60%
- herbicidal effect LOLMU (Lolium multiflorum [10]): 100%

SMILES: CCc1cc(C)cc(CC)c1C1=C(O)[C@H]2CC3(C[C@H]2C1=O)OCC(OC)CO3 (relative stereo) [I-a-26]
- herbicidal effect against ECHCG (Echinochloa crus-galli) (Echinocloa crus-galli [1]): 100%
- herbicidal effect against ALOMY (Alopecurus myosuroides) (Alopecurus myosuroides [2]): 100%
- herbicidal effect against SETVI (Setaria viridis) (Setaria viridis [3]): 100%
- herbicidal effect against LOLMU (Lolium multiflorum) (Lolium multiflorum [4]): 100%
- herbicidal effect AVEFA [5]: 70%
- herbicidal effect against AVEFA (Avena fatua) [6]: 100%
- herbicidal effect ECHCG (Echinocloa crus-galli [7]): 100%
- herbicidal effect ALOMY (Alopecurus myosuroides [8]): 100%
- herbicidal effect SETVI (Setaria viridis [9]): 100%
- herbicidal effect LOLMU (Lolium multiflorum [10]): 100%

SMILES: CCC(=O)OC1=C(c2c(CC)cc(C)cc2CC)C(=O)C2CC3(COC(C)(C)O3)CC12 (centres unmarked) [I-b-6]
- herbicidal effect against ECHCG (Echinochloa crus-galli) (Echinocloa crus-galli [1]): 100%
- herbicidal effect against ALOMY (Alopecurus myosuroides) (Alopecurus myosuroides [2]): 90%
- herbicidal effect against SETVI (Setaria viridis) (Setaria viridis [3]): 90%
- herbicidal effect against LOLMU (Lolium multiflorum) (Lolium multiflorum [4]): 100%
- herbicidal effect AVEFA [5]: 80%
- herbicidal effect against AVEFA (Avena fatua) [6]: 100%
- herbicidal effect ECHCG (Echinocloa crus-galli [7]): 30%
- herbicidal effect ALOMY (Alopecurus myosuroides [8]): 100%
- herbicidal effect SETVI (Setaria viridis [9]): 60%
- herbicidal effect LOLMU (Lolium multiflorum [10]): 100%

SMILES: CCOC1COC2(CC3C(=O)C(c4c(CC)cc(C)cc4CC)=C(OC(=O)OC)C3C2)OC1 (centres unmarked) [I-c-27]
- herbicidal effect against ECHCG (Echinochloa crus-galli) (Echinocloa crus-galli [1]): 100%
- herbicidal effect against ALOMY (Alopecurus myosuroides) (Alopecurus myosuroides [2]): 100%
- herbicidal effect against SETVI (Setaria viridis) (Setaria viridis [3]): 100%
- herbicidal effect against LOLMU (Lolium multiflorum) (Lolium multiflorum [4]): 100%
- herbicidal effect AVEFA [5]: 80%
- herbicidal effect against AVEFA (Avena fatua) [6]: 100%
- herbicidal effect ECHCG (Echinocloa crus-galli [7]): 100%
- herbicidal effect ALOMY (Alopecurus myosuroides [8]): 100%
- herbicidal effect SETVI (Setaria viridis [9]): 90%
- herbicidal effect LOLMU (Lolium multiflorum [10]): 100%

SMILES: Cc1cc(C)c(C2=C(O)[C@H]3CC4(C[C@H]3C2=O)OCC(C)CO4)c(C)c1 (relative stereo) [I-a-38]
- herbicidal effect against ECHCG (Echinochloa crus-galli) (Echinocloa crus-galli [1]): 80%
- herbicidal effect against ALOMY (Alopecurus myosuroides) (Alopecurus myosuroides [2]): 100%
- herbicidal effect against SETVI (Setaria viridis) (Setaria viridis [3]): 90%
- herbicidal effect against LOLMU (Lolium multiflorum) (Lolium multiflorum [4]): 100%
- herbicidal effect AVEFA [5]: 40%
- herbicidal effect against AVEFA (Avena fatua) [6]: 90%
- herbicidal effect ECHCG (Echinocloa crus-galli [7]): 40%
- herbicidal effect ALOMY (Alopecurus myosuroides [8]): 100%
- herbicidal effect SETVI (Setaria viridis [9]): 90%
- herbicidal effect LOLMU (Lolium multiflorum [10]): 100%

SMILES: COC(=O)OC1=C(c2c(C)cc(C)cc2C)C(=O)C2CC3(COC(C)(C)O3)CC12 (mixture of isomers) [I-c-56]
- herbicidal effect against ECHCG (Echinochloa crus-galli) (Echinocloa crus-galli [1]): 80%
- herbicidal effect against ALOMY (Alopecurus myosuroides) (Alopecurus myosuroides [2]): 90%
- herbicidal effect against SETVI (Setaria viridis) (Setaria viridis [3]): 40%
- herbicidal effect against LOLMU (Lolium multiflorum) (Lolium multiflorum [4]): 80%
- herbicidal effect AVEFA [5]: 20%
- herbicidal effect against AVEFA (Avena fatua) [6]: 20%
- herbicidal effect ECHCG (Echinocloa crus-galli [7]): 20%
- herbicidal effect ALOMY (Alopecurus myosuroides [8]): 90%
- herbicidal effect SETVI (Setaria viridis [9]): 0%
- herbicidal effect LOLMU (Lolium multiflorum [10]): 90%

SMILES: CCOC(=O)OC1=C(c2c(C)cc(C)cc2C)C(=O)C2CC3(CC12)OCCO3 (centres unmarked) [I-c-44]
- herbicidal effect against ECHCG (Echinochloa crus-galli) (Echinocloa crus-galli [1]): 100%
- herbicidal effect against ALOMY (Alopecurus myosuroides) (Alopecurus myosuroides [2]): 40%
- herbicidal effect against SETVI (Setaria viridis) (Setaria viridis [3]): 90%
- herbicidal effect against LOLMU (Lolium multiflorum) (Lolium multiflorum [4]): 100%
- herbicidal effect AVEFA [5]: 50%
- herbicidal effect against AVEFA (Avena fatua) [6]: 80%
- herbicidal effect ECHCG (Echinocloa crus-galli [7]): 0%
- herbicidal effect ALOMY (Alopecurus myosuroides [8]): 50%
- herbicidal effect SETVI (Setaria viridis [9]): 0%
- herbicidal effect LOLMU (Lolium multiflorum [10]): 100%

SMILES: CCc1cc(C)cc(CC)c1C1=C(OC(C)=O)C2CC3(CC2C1=O)OCCO3 (centres unmarked) [I-b-18]
- herbicidal effect against ECHCG (Echinochloa crus-galli) (Echinocloa crus-galli [1]): 100%
- herbicidal effect against ALOMY (Alopecurus myosuroides) (Alopecurus myosuroides [2]): 100%
- herbicidal effect against SETVI (Setaria viridis) (Setaria viridis [3]): 100%
- herbicidal effect against LOLMU (Lolium multiflorum) (Lolium multiflorum [4]): 100%
- herbicidal effect AVEFA [5]: 70%
- herbicidal effect against AVEFA (Avena fatua) [6]: 100%
- herbicidal effect ECHCG (Echinocloa crus-galli [7]): 80%
- herbicidal effect ALOMY (Alopecurus myosuroides [8]): 100%
- herbicidal effect SETVI (Setaria viridis [9]): 70%
- herbicidal effect LOLMU (Lolium multiflorum [10]): 100%

SMILES: CCC(=O)OC1=C(c2c(C)cc(C)cc2CC)C(=O)C2CC3(COC(C)(C)O3)CC12 (centres unmarked) [I-b-67]
- herbicidal effect against ECHCG (Echinochloa crus-galli) (Echinocloa crus-galli [1]): 100%
- herbicidal effect against ALOMY (Alopecurus myosuroides) (Alopecurus myosuroides [2]): 100%
- herbicidal effect against SETVI (Setaria viridis) (Setaria viridis [3]): 90%
- herbicidal effect against LOLMU (Lolium multiflorum) (Lolium multiflorum [4]): 100%
- herbicidal effect AVEFA [5]: 90%
- herbicidal effect against AVEFA (Avena fatua) [6]: 70%
- herbicidal effect ECHCG (Echinocloa crus-galli [7]): 100%
- herbicidal effect ALOMY (Alopecurus myosuroides [8]): 90%
- herbicidal effect SETVI (Setaria viridis [9]): 90%
- herbicidal effect LOLMU (Lolium multiflorum [10]): 100%

SMILES: CCc1cc(C)cc(C)c1C1=C(OC(=O)OC)C2CC3(CC2C1=O)OCC=CCO3 (racemic) [I-c-73]
- herbicidal effect against ECHCG (Echinochloa crus-galli) (Echinocloa crus-galli [1]): 100%
- herbicidal effect against ALOMY (Alopecurus myosuroides) (Alopecurus myosuroides [2]): 100%
- herbicidal effect against SETVI (Setaria viridis) (Setaria viridis [3]): 100%
- herbicidal effect against LOLMU (Lolium multiflorum) (Lolium multiflorum [4]): 100%
- herbicidal effect AVEFA [5]: 40%
- herbicidal effect against AVEFA (Avena fatua) [6]: 0%
- herbicidal effect ECHCG (Echinocloa crus-galli [7]): 50%
- herbicidal effect ALOMY (Alopecurus myosuroides [8]): 70%
- herbicidal effect SETVI (Setaria viridis [9]): 60%
- herbicidal effect LOLMU (Lolium multiflorum [10]): 100%

SMILES: CCOC(=O)OC1=C(c2c(CC)cc(C)cc2CC)C(=O)C2CC3(CC12)OC(C)(C)C(C)(C)O3 (centres unmarked) [I-c-18]
- herbicidal effect against ECHCG (Echinochloa crus-galli) (Echinocloa crus-galli [1]): 80%
- herbicidal effect against ALOMY (Alopecurus myosuroides) (Alopecurus myosuroides [2]): 60%
- herbicidal effect against SETVI (Setaria viridis) (Setaria viridis [3]): 0%
- herbicidal effect against LOLMU (Lolium multiflorum) (Lolium multiflorum [4]): 90%
- herbicidal effect AVEFA [5]: 0%
- herbicidal effect against AVEFA (Avena fatua) [6]: 0%
- herbicidal effect ECHCG (Echinocloa crus-galli [7]): 100%
- herbicidal effect ALOMY (Alopecurus myosuroides [8]): 90%
- herbicidal effect SETVI (Setaria viridis [9]): 10%
- herbicidal effect LOLMU (Lolium multiflorum [10]): 100%

From patent US8367873B2, “Phenyl-substituted bicyclooctane-1,3-dione derivatives” (Bayer Cropscience AG, priority 2008, dated 2013)
